Values joined by “and” are separate entries in the source; they are usually repeats but may differ in a detail not shown here. Equal entries are not always repeated.
Columns and labels:
[1] = GastroPlus ACAT/PBPK physico-chemical and formulation input parameters; conditions: for controlled-release dissolution profile, release: fitted to plasma profile
Text: The pharmacokinetic (PK) model in adult subjects was developed using an Advanced Compartmental And Transit (ACAT)/Physiologically Based Pharmacokinetic (PBPK) model in GastroPlus™ software, Version 9.6 (SimulationPlus, Lancaster, CA, USA).
• Principle set-up of a pediatric ACAT/PBPK model in GastroPlus™ software including physico-chemical parameters, physiological parameters, and formulation factors. The ACAT model was linked to a full PBPK model in which tissue-to-plasma concentration ratios were estimated via in silico method provided by GastroPlus™ software. • Estimation of the clearance (CL) using plasma concentrations of branaplam from an open-label multi-part first-in-human proof of concept study of oral branaplam, Part 1 only. The aim of Part 1 of this study was to determine the safety and tolerability of ascending weekly doses and to estimate the maximum tolerated dose (MTD) of oral/enteral branaplam (formulation described in Example 3) in infants with Type 1 SMA. All patients had exactly 2 copies of the SMN2 gene. Patients were dosed once weekly with branaplam. The branaplam doses were escalated in subsequent cohorts until MTD was determined or when PK results confirmed that the MTD could not be reached due to a potential pharmacokinetic exposure plateau at higher doses. The starting dose referring to the free base was 6 mg/m^2 (equal to 0.3125 mg/kg). Subsequent doses were 12 mg/m^2, 24 mg/m^2, 48 mg/m^2 and 60 mg/m^2 (0.625 mg/kg, 1.25 mg/kg, 2.5 mg/kg and 3.125 mg/kg, respectively). 14 patients were enrolled in Part 1; 13 patients were exposed to branaplam. The duration of exposure ranged from 4-33 months, 7 patients remain in the study. Six of the 7 patients are receiving 60 mg/m^2, 1 patient is receiving 48 mg/m^2.
The in vivo solubility parameter for branaplam was newly assessed to consider the impact of the solubilizer cyclodextrin (CD), which is present in the currently used formulation (Example 3), on the solubility of branaplam. […]

mutant HTT protein = test: Mouse population PK/PD turnover model based on BacHD mouse; type: in vivo; conditions: for Imax: set to 1
Text: For the development of the PK/PD relationship, the concentration of mutant HTT protein in the brain of BacHD mice and its changes after branaplam administration were used as PD biomarker (Example 1a). To increase the data base, all concentrations of the mutant HTT protein were pooled. The correlation between branaplam concentrations in plasma and the mutant HTT protein concentrations in the brain were investigated by means of a turnover model (described below) considering the inhibition of the production of mutant HTT protein in the brain. Since mutant HTT protein was determined in brain cortex and brain striatum, the PK/PD correlations were executed for both brain parts separately. […] For the execution of the population PK/PD model, the PK parameters (presented in Table 6) from the previously described population PK model were fixed and the PD parameters were calculated. The Monolix software (Version 2018R1, Lixoft) and its turnover model described in the library (pkpd/oral1_2cpt_SigmoidindirectModelinhibitionKin_TlagkaCIV1QV2R0koutimaxIC50gamma) was used to determine the PD parameters in the mouse. The PD part of the model can be described by the following equation:
mutant HTT protein change over time=kin*(1−I max*max(Cc,0)^gamma/(max(Cc,0)^gamma+IC50^gamma))−kout*R • kin: synthesis rate of mutant HTT protein • kout: degradation rate of mutant HTT protein • Imax: maximum inhibition effect • IC50: half-maximum inhibitory concentration • gamma: sigmoidicity of the drug effect • max(Cc,0): branaplam plasma concentration • R: mutant HTT protein level at a given time with baseline R0 of 1 since only relative changes to the baseline were determined in the BacHD mouse model, Example 1a
It has to be noted, that the maximum inhibitory effect was set to 1 and the mutant HTT protein baseline, R0, was set to 1 since only relative changes to the baseline were determined in the BacHD mouse (Example 1a).

[2] = Mouse population PK model (plasma); type: in vivo; conditions: popPK parameters (plasma)
Method: For the establishment of the PK/PD relationship and the development of a mouse PK/PD model, the PK parameters in mouse plasma were estimated considering PK data from studies with male C57BL/6 mice (10 mg/kg, single dose), rasH2 mice (1, 3, 4 and 10 mg/kg, repeated daily doses), and BacHD mice (10 and 50 mg/kg, single dose; 12 and 24 mg/kg, repeated, three times a week doses). […] The population PK model was described and executed by Monolix software (Version 2018R1, Lixoft).

CC1(C)CC(Oc2ccc(-c3ccc(-c4cn[nH]c4)cc3O)nn2)CC(C)(C)N1 [Compound 18, 5-(1H-pyrazol-4-yl)-2-(6-((2,2,6,6-tetramethylpiperidin-4-yl)oxy)pyridazin-3-yl)phenol]
controlled-release dissolution profile, release ([1]; at 0.25 h): 2% | controlled-release dissolution profile, release ([1]; at 1 h): 5% | Solubility ([1]; pH 6.8, optimized with GastroPlus on observed concentration-time data (cyclodextrin formulation), listed as branaplam): 0.088 at pH 6.8 (Optimized value using GastroPlus ™ software mg/mL and 0.088 at pH 6.8 (Optimized value using GastroPlus ™ based mg/mL | time of maximum decrease of mutant HTT protein in the brain (mutant HTT protein; BacHD mouse): about 72 h post dose | IC50 (plasma concentration, inhibition of mutant HTT protein production) (mutant HTT protein; popPD parameters (cortex), BacHD mouse): 0.174 µg/mL | Imax (mutant HTT protein; popPD parameters (cortex)): 1 | IC50 (plasma concentration, inhibition of mutant HTT protein production) (mutant HTT protein; popPD parameters (striatum), BacHD mouse): 0.0682 µg/mL | Imax (mutant HTT protein; popPD parameters (striatum)): 1 | CL/F ([2]; C57BL/6, rasH2, BacHD (pooled), other: extra-vascular administration): 55.8 mL/min/kg | Q/F [2]: 8.4 mL/min/kg | V1 [2]: 28.2 L/kg | V2 [2]: 32.5 L/kg | ka [2]: 0.429 h⁻¹ | Tlag ([2]; pooled C57BL/6, rasH2 and BacHD data): 0.346 h
